The results in this text go back to ChEMBL document CHEMBL1129685, “Mechanism-based inhibition of L-pipecolate oxidase by 4,5-dehydro-L-pipecolic acid” (J Med Chem, 1996).

The target of this assay is T1, Peroxisomal sarcosine oxidase (Homo sapiens) (UniProt Q9P0Z9).
T1 sequence (whole entry): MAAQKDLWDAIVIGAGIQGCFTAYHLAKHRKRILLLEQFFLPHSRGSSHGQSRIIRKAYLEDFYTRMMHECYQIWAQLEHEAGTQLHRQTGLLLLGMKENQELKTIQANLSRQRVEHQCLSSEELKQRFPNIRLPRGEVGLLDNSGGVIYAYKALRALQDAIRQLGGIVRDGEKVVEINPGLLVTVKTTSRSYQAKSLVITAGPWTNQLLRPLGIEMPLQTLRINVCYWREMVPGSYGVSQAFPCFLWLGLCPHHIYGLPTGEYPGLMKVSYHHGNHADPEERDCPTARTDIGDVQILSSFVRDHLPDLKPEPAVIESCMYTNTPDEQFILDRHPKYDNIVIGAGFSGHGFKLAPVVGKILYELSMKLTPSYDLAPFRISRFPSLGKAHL
The experiment in a line: Kinetic parameter inactivation constant was determined on L-pipecolate oxidase from Rhesus monkey. Particulars: Cercopithecidae; target entry is the homologue from another species.

Take `O=C(O)[C@@H]1CCCCN1`: the Kiact stood at 2 min⁻¹.
